For one assay, the target named is T1, FGFR1 (Homo sapiens, UniProt P11362).
T1 construct: made in house; host or cells: Sf9 insect cells, baculovirus (pFastBacHis), by the same method as VEGFR2
In words: Inhibition against receptor tyrosine kinase activity (HTRF), FGFR1. Format: biochemical. To be noted: His6-FGFR1 cytoplasmic domain, biotin-poly(GT), HTRF; read-out: FGFR1 kinase IC50. An excerpt:
This assay is used to determine inhibition of a test substance on tyrosine kinase activity. DNA coding for the cytoplasmic domain of VEGFR2 is obtained by total cDNA synthesis (Edwards M, International Biotechnology Lab 5(3), 19-25, 1987) or by cloning. Expression in an appropriate expression system can produce a polypeptide with tyrosine kinase activity. […] For VEGFR2 (GenBank Accession No. L04947), the 1.7 kb DNA fragment described by Terman et al. (Oncogene, 6(9), 1677-1683, 1991), coding for the cytoplasmic domain, beginning with lysine 791 and including the termination codon, was isolated from a human placental cDNA library (purchased from Clontech Laboratories, Inc.) and cloned in a Baculovirus expression vector (pFastBacHis, purchased from GIBCO BRL). The recombinant construct was transfected into insect cells (Spondoptea frugiperda9 (Sf9)) to prepare a recombinant Baculovirus. (Instructions for preparation and use of recombinant Baculovirus may be found in standard texts, such as “Bac-To-Bac Baculovirus Expression System” (GIBCO BRL).) The cytoplasmic fragment starting from lysine 398 (FGFR1, GenBank Accession No. X52833), the cytoplasmic fragment starting from lysine 558 (PDGFRβ, GenBank Accession No. M21616) or the cytoplasmic fragment starting from lysine 974 (HGFR, GenBank Accession No. J02958) may be cloned and expressed by the same method for use in assays for other tyrosine kinases. EGFR was purchased from Sigma Co. (Product No. E-2645).
For expression of the VEGFR2 tyrosine kinase, Sf9 cells were infected with the VEGFR2 recombinant virus and collected after 48 hours. The collected cells were rinsed with ice-cooled phosphate buffered saline (PBS) and then resuspended using 20 ml of ice-cooled Lysis Buffer (50 mM Tris-HCl (pH 8.5), 5 mM 2-mercaptoethanol, 100 mM KCl, 1 mM phenylmethylsulfonyl fluoride, 1% (v/v) NP-40) per 1.5×10^8 cells. The suspension was centrifuged at 12,000 rpm for 30 minutes at 4° C. and the supernatant was obtained. The supernatant was added to a Ni-NTA agarose column (3 ml, purchased from Qiagen) equilibrated with Buffer A {20 mM Tris-HCl (pH 8.5), 5 mM 2-mercaptoethanol, 500 mM KCl, 20 mM imidazole, 10% (v/v) glycerol}. The column was washed with 30 ml of Buffer A, and then with 6 ml of Buffer B {20 mM Tris-HCl (pH 8.5), 5 mM 2-mercaptoethanol, 1M KCl, 10% (v/v) glycerol}, and finally with 6 ml of Buffer A. After washing, it was eluted with 6 ml of Buffer C {20 mM Tris-HCl (pH 8.5), 5 mM 2-mercaptoethanol, 100 mM KCl, 100 mM imidazole, 10% (v/v) glycerol}. The eluate was placed on a dialysis membrane (purchased from Spectrum Laboratories) and dialyzed with a dialysis buffer {20 mM Tris-HCl (pH 7.5), 10% (v/v) glycerol, 1 mM dithiothreitol, 0.1 mM Na3VO4, 0.1 mM EGTA}. After dialysis, it was supplied for SDS-electrophoresis, and the recombinant protein (His6-VEGFR2, cytoplasmic domain of VEGFR2 fused with 6 histidine residues at the N-terminus) detected at a molecular weight of approximately 100 kDa with Coumassie Brilliant Blue staining was assayed using BSA (bovine serum albumin, purchased from Sigma Co.) as the standard substance, and stored at −80° C. until use. Using the same method for the cytoplasmic domains of FGFR1, PDGFRβ and HGFR yielded respective recombinant proteins fused with 6 histidine residues at the N-terminal (His6-FGFR1, His6-PDGFRβ or His6-HGFR).
The tyrosine kinase reaction was conducted as follows. In the case of VEGFR2, for example, 10 μl of a kinase reaction solution {200 mM Hepes (pH 7.4), 80 mM MgCl2, 16 mM MnCl2, 2 mM Na3VO4}, 250 ng of biotin-bound poly(Glu4:Tyr1) (biotin-poly(GT), purchased from CIS Diagnostics Co.) (6 μl of a 15-fold dilution with distilled water), 15 ng of His6-VEGFR2 (10 μl of a 240-fold dilution with 0.4% BSA solution) and the test substance dissolved in dimethyl sulfoxide (4 μl of a 100-fold dilution with 0.1% BSA solution) were added into each well of a 96-well round-bottom plate (NUNC Co., Product No. 163320), to a total of 30 μl. […]

In the next assay the test system is KP-1/VEGF cells. Put plainly: Antitumor activity on KP-1/VEGF cells in subcutaneous xenograft models. It counts as in vivo, mouse. To be noted: oral twice a day, 2 weeks (5 days per week), Balb/c (nu/nu) mice. Here is the method: VEGF high-expressing pancreatic cancer cells (KP-1/VEGF) suspended in PBS at a concentration of 1×10^7 cells/ml were transplanted under the right flank skin of 6-week-old female Balb/c (nu/nu) mice in a volume of 0.1 ml. When the tumor volume reached approximately 100 mm^3, the test substance was orally administered twice a day over a period of 2 weeks with a schedule of 5 days per week. The test substance was suspended in 0.5% methyl cellulose for an administered volume of 0.1 ml/10 g body weight. The tumor size was measured twice a week using a micrometer caliper. The tumor volume was determined by measuring the long and short diameters of the tumor with a micrometer caliper, and calculating ½×(long diameter×short diameter×short diameter). The experiment was conducted using 10 mice in the control (solvent-administered) group and 5 mice in each test substance-administered group.

Usually IC50 stands for the concentration that inhibits the measured activity by half.

T1 sequence (P11362 398-822 limits assumed): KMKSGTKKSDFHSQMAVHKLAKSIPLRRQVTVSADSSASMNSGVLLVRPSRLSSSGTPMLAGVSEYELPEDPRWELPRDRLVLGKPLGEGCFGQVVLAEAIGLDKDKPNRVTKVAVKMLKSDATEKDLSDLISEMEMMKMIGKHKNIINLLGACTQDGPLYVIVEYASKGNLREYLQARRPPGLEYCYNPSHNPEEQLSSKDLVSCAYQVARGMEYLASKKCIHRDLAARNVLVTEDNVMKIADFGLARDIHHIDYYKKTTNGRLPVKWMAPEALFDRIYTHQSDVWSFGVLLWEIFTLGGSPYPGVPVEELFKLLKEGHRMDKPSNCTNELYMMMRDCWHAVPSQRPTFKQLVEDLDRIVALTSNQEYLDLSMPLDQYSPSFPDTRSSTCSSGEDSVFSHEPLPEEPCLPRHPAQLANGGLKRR

With `CNC(=O)n1ccc2cc(Oc3ccnc(NC(=O)N4CCC(O)CC4)c3)ccc21` [Example 39, N1-Methyl-5-(2-((4-hydroxypiperidino)carbonyl)amino-4-pyridyl)oxy-1H-1-indolecarboxamide], the IC50 at FGFR1 is 6.3 nM.

Take `CNC(=O)n1ccc2cc(Oc3ccnc(NC(=O)N4CCC(C)(O)CC4)c3)ccc21` [Example 41, 5-(2-(((4-Hydroxy-4-methylpiperidin-1-yl)carbonyl)amino)pyridin-4-yloxy)-1H-1-indole-1-carboxylic acid methylamide]: the IC50 on FGFR1 was 3.2 nM.

On to `CNC(=O)n1ccc2cc(Oc3ccnc(NC(=O)N4CCC(N5CCCC5)CC4)c3)ccc21` [Example 46, N1-Methyl-5-(2-(((4-(pyrrolidin-1-yl)piperidin-1-yl)carbonyl)amino)pyridin-4-yloxy)-1H-1-indolecarboxamide], for which the “proportion of the tumor volume after administering test substance to that of control” value (“proportion of the tumor volume” for short) was 77.7% in the assay on KP-1/VEGF cells (6 mg/kg/day), 59.3% with KP-1/VEGF cells (20 mg/kg/day), 60.0% in the assay with KP-1/VEGF cells (60 mg/kg/day) and 36.2% in the assay on KP-1/VEGF cells (200 mg/kg/day). In addition, the concentration for half-maximal inhibition (IC50) on FGFR1 was found to be 12 nM.

With `CNC(=O)n1ccc2cc(Oc3ccnc(NC(=O)N4CCC(N5CCCCC5)CC4)c3)ccc21` [Example 47, N1-Methyl-5-(2-(((4-(piperidin-1-yl)piperidin-1-yl)carbonyl)amino)pyridin-4-yloxy)-1H-1-indolecarboxamide], the “proportion of the tumor volume” value with KP-1/VEGF cells (6 mg/kg/day) came to 80.5%; in the assay on KP-1/VEGF cells (20 mg/kg/day) it was 64.6%; in the assay with KP-1/VEGF cells (60 mg/kg/day), 45.3%; with KP-1/VEGF cells (200 mg/kg/day) it was 33.6%. Also, on FGFR1, the IC50 is 21 nM.

As for `CNC(=O)n1ccc2cc(Oc3ccnc(NC(=O)N4CCOCC4)c3)ccc21` [Example 53, N4-(4-(1-(Methylamino)carbonyl-1H-5-indolyl)oxy-2-pyridyl)-4-morpholinecarboxamide], the “proportion of the tumor volume” value in the assay with KP-1/VEGF cells (6 mg/kg/day) was determined as 73.1%; in the assay on KP-1/VEGF cells (20 mg/kg/day), 60.4%; with KP-1/VEGF cells (60 mg/kg/day), 48.4%; in the assay on KP-1/VEGF cells (200 mg/kg/day), 37.9%. The 50% inhibitory concentration (IC50) at FGFR1 is 2.1 nM.

The values are drawn from patent US20060004029A1, “Nitrogen-containing aromatic derivatives” (priority 2003, published 2006).
